The values below are quoted from earlier work in US20200396993A1, “COMPOSITIONS AND METHODS FOR RELEASE OF CYCLOPROPENES” (Hazel Technologies, Inc., priority 2017, published 2020).

Molecules are shown by their SMILES. Values after ≈ are worked out from the molar mass of the structure shown.

For this data set the following is noted: in water.

In general, solubility refers to how much of the substance goes into solution per volume. With `CC1=CC1` [Sample 1-MCP, 1-methylcyclopropene], the solubility was 0.137 mg/mL (≈ 2530 µM).
